# Assay results reported in patent publication US20230390304A1, “Method and Composition for Treating Epilepsy” (Lipocine Inc., priority 2022, published 2023).
# Assay: Solubility of 3α-OH-5β-pregnan-20-one in SBE-β-CD (cyclodextrin) solution
# Assay type: physicochemical
# Experimental: When utilizing sulfobutylether-β-cyclodextrin (SBE-3-CD) oral compositions including solubilized or semi solid 3α-OH-5β-pregnan-20-one, it may be challenging to load proper amounts of 3α-OH-5β-pregnan-20-one so as to deliver effective serum levels of 3α-OH-5β-pregnan-20-one due to limitations with respect to 3α-OH-5β-pregnan-20-one solubility in various cyclodextrin solutions including SBE-β-CD (e.g. only ˜6 mg/ml of 3α-OH-5β-pregnan-20-one solubility in 24% w/v non-encapsulated SBE-β-CD solution). The solubilized fraction of 3α-OH-5β-pregnan-20-one began to decline, as observed by precipitation, when 3α-OH-5β-pregnan-20-one concentration was above 8 mg/ml. The amount of 3α-OH-5β-pregnan-20-one in the cyclodextrin solution can only be enabled by about 0.6% w/w loading amount of the composition fill. Moreover, high cyclodextrin amounts required to solubilize 3α-OH-5β-pregnan-20-one also present safety concerns. In some aspects, the compositions and dosage forms of this invention can comprise higher 3α-OH-5β-pregnan-20-one loading amounts than ones formulated in non-encapsulated SBE-β-CD or any cyclodextrin solution composition.
smiles,measurement,setting,value
CC(=O)[C@H]1CC[C@H]2[C@@H]3CC[C@@H]4C[C@H](O)CC[C@]4(C)[C@H]3CC[C@]12C [3α-OH-5β-pregnan-20-one],"3α-OH-5β-pregnan-20-one concentration above which the solubilized fraction began to decline, as observed by precipitation",cyclodextrin (SBE-β-CD) solution,above 8 mg/ml
same,loading amount of the composition fill enabled in the cyclodextrin solution,cyclodextrin solution,about 0.6 % w/w
same,3α-OH-5β-pregnan-20-one solubility,in 24% w/v non-encapsulated SBE-β-CD solution,~6000 µg/mL
